Data set [1] can be described thus: Equilibrium binding to DMPG small unilamellar vesicles (fluorescence anisotropy titration). Particulars: PBS buffer at PH 7.4 and 37° C.
For data set [2] the following is noted: human; for t1/2: blood.
Data set [3] is described as follows: Kinetics of lactone ring opening in whole human blood (HPLC).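 Note: hydrolytic opening of the camptothecin lactone ring followed over time by quantitative C18 reversed-phase HPLC in human whole blood at physiological temperature.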 Particulars: Whole Blood, physiological temperature.
The conditions of data set [4]: earlier studies; cited from earlier work.
Data set [5] in a line: Equilibrium binding to DMPC small unilamellar vesicles (fluorescence anisotropy titration). Particulars: for KDMPC overall association constant: PBS buffer at PH 7.4 and 37° C.
Data set [6] can be described thus: Kinetics of lactone ring opening in PBS buffer (HPLC). The data set is classed as physicochemical. The note with it: for % Lactone at Equilibrium: PBS; for half-life: pH 7.4. How it is done:
Kinetics of Lactone Ring Opening. […] Mi and Burke (1994), supra.
FIG. 21 summarizes the stability of DB172 in phosphate buffered saline (PBS) buffer, pH 7.4, at physiological temperature. Shown in the figure are plots of lactone fraction as a function of time for DB172 at different concentrations. Drug was added to solution from a concentrated DMSO stock solution such that the volumes of DMSO were very small (less than 0.5%) relative to the volume of water. […] At the more dilute drug concentrations the drug hydrolyzes as previously observed for other camptothecins containing the ^α-hydroxy-^δ-lactone moiety.

Data set [7] in a line: Kinetics of lactone ring opening in RBC (HPLC). The format is in vitro ADME, human. From the text: Kinetics of Lactone Ring Opening. […] Mi and Burke (1994), supra. […] Louis, Mo.) was used.
A short description of data set [8]: Kinetics of lactone ring opening in PBS containing HSA (HPLC). The note with it: HSA (PBS containing 30 mg/ml HSA).
Data set [9] deals with 833K (human teratocarcinoma) cells. The experiment in a line: Cytotoxicity assay, 833K cells (sulforhodamine B protein content). Particulars: Homo sapiens; 833K cells, sulforhodamine B; read-out: Inhibition of cancer cell growth IC50, 833K. The data set is classed as cell-based. Here is the method: (§1) Cultures were fixed with trichloroacetic acid and then stained for 30 minutes with 0.4% sulforhodamine B dissolved in 1% acetic acid. Unbound dye was removed by acetic acid washes, and the protein-bound dye was extracted with an unbuffered Tris base [tris(hydroxy-methyl)aminomethan] for determination of absorbance at 570 nm in a 96-well microplate reader. The experiments were carried out in duplicate using five to six concentrations of the drugs tested. Data were analyzed via computer software.

A short description of a further data set: in vitro. Particulars: human.
The subject of data set [10] is DC-3F (hamster lung) cells. The experiment in a line: Cytotoxicity assay, DC-3F cells (sulforhodamine B protein content). Particulars: Mesocricetus auratus, DC3F; DC-3F cells, sulforhodamine B; read-out: Inhibition of cancer cell growth IC50, DC-3F. The format is cell-based. Here is the method:
as §1

Data set [11] deals with HL-60 (human promyelocytic leukemic) cells. The experiment in a line: Cytotoxicity assay, HL-60 cells (XTT-microculture tetrazolium assay). The data set is classed as cell-based. The note with it: Homo sapiens; HL-60 cells, 72 hr incubation, XTT; read-out: Inhibition of cancer cell growth IC50, HL-60. How it is done: The camptothecin derivatives were evaluated for their cytotoxic effects on the growth of HL-60 (human promyelocytic leukemic), 833K (human teratocarcinoma) and DC-3F (hamster lung) cells in vitro. The cells were cultured in an initial density of […]. They were maintained in a 5% CO2 humidified atmosphere at 37° C. in RPMI-1640 media (GIBCO-BRL Grand Island, N.Y.) containing penicillin 100 μ/ml)/streptomycin (100 ^μg/ml) (GIBCO-BRL) and 10% heat inactivated fetal bovine serum. The assay was performed in duplicate in 96-well microplates. The cytotoxicity of the compounds toward HL-60 cells following 72 hr incubation was determined by XTT-microculture tetrazolium assay. Scudiero, D. A., et al., Cancer Res., 48, 4827 (1988), the disclosure of which is incorporated herein by reference. 2′, 3′-bis(-methoxy-4-nitro-5-sulfheny)-5-[(phenylamino)carbonyl]-2H-tetrazolium hydroxide (XTT) was prepared at 1 mg/ml in prewarmed (37° C.) medium without serum. Phenazine methosulfate (PMS) and fresh XTT were mixed together to obtain 0.075 mM PMS-XTT solution (25 ^μl of the stock 5 mM PMS was added per 5 ml of 1 mg/ml XTT). Fifty ^μl of this mixture was added to each well of the cell culture at the end of 72 hr incubation. After incubation at 37° C. for 4 hr., absorbance at 450 nm and 630 nm was measured with a microplate reader (EL340, Bio-Tek Instruments, Inc., Winooski, Vt.).

Data set [12] in a line: Self-association in aqueous solution (fluorescence intensity with time). The note with it: lactone drug forms added to solution, time=0. The data set is classed as physicochemical. How it is done: FIG. 22 summarizes the dependence of the fluorescence intensity of DB172 as a function of time and pH. In these experiments DB172 is added to solution as the lactone form. At low pH where the drug remains in the lactone form, the change in intensity with time is the lowest. At pH 10, where the conditions are such that the lactone more readily hydrolyzes and forms carboxylate, a significant change in fluorescence intensity is observed. It appears that a pH 10 nonfluorescent micellular aggregates composed of lactone disassemble and form open-ring carboxylate forms that tend to exist in solution as monomeric fluorescent species.
FIG. 23 explores the fluorescence intensity of DB172 as a function of concentration. Following the addition of low concentration of lactone drug to solution, the change in fluorescence signal is the greatest whereas at high drug concentration (10 ^μM) the fluorescence intensity changes are minimal. It is believed that a low concentration the micellular aggregates of DB172 displaying reduced fluorescence can disassemble and form fluorescent carboxylate species, but at higher drug concentration the equilibrium favors that the agent remains in the aggregated or reduced fluorescence state. […] Once again this decrease in fluorescence that occurs at reduced pH appear to be due to the formation of lactone aggregates of reduced fluorescence quantum yield.
FIGS. 21 through 24 are consistent with the unusual ability of DB172 lactone to self-associate and form micelles at micromolar drug concentrations. The micellular DB172 aggregates display a reduced fluorescence. If conditions allow for hydrolysis to occur such that carboxylate forms, there is an increase in the fluorescence intensity of the sample. FIG. 25 compares the relative change in the fluorescence emission of a sample following addition of lactone drug forms to solution. In these experiments the values for each drug are normalized to a value of 1 at time equals to zero, and the ability of the various analogs to disassociate in the event the drugs are aggregated at time=0 is monitored with time. […]

The structures appear in SMILES notation. Read-outs that look alike come from different tables or passages of the source.

The values below come from US6743917B2, “Camptothecin analogs and methods of preparation thereof” (University of Pittsburgh, priority 1993, dated 2004).

For the compound `CCc1c2c(nc3ccc(O)cc13)-c1cc3c(c(=O)n1C2)COC(=O)[C@]3(O)CC` [SN-38, 10-hydroxy-7-ethylcamptothecin, reference compound], in data set [1], the “KDMPG overall association constant” value was 160 M⁻¹. The t1/2 in data set [2] worked out at 50.7 ± 1.4 min. Also, the “% Lactone at Equilibrium” value is listed as 19.5% in data set [3] and 20.2 +/− 1.9% in data set [3] (listed as SN 38). In addition, the “% lactone at equilibrium in whole human blood” value in [4] is 19.5%. Besides, in data set [5], the “KDMPC overall association constant” value is 260 M⁻¹.
Turning to `CC[C@@]1(O)C(=O)OCc2c1cc1n(c2=O)Cc2c-1nc1ccccc1c2[Si](C)(C)CCCN(C)C.Cl` [DB-104, 7-(3-dimethylaminopropyldimethylsilyl) camptothecin hydrochloride salt], the t1/2 in [2] stood at 77.2 ± 1.8 min; in data set [6] (buffer) it was 24.1 ± 1.0 min. Besides, the “% Lactone at Equilibrium” value in data set [6] is listed as 7.5 +/− 0.2%.
Regarding `CC[C@@]1(O)C(=O)OCc2c1cc1n(c2=O)Cc2c-1nc1ccccc1c2[Si](C)(C)CCCCl` [DB-148, (20S)-7-(3-chloropropyldimethylsilyl)camptothecin], the “% Lactone at Equilibrium” value in [6] is 12.0 +/− 0.5%; in [3] it was 2.2 +/− 3.6%; in [7] (RBC), 43.4 +/− 0.8%; in [8] it was 2.7 +/− 0.2%. The values for the t1/2 in data set [3], in [7] (RBC) and in data set [8] were 85.6 ± 9.2 min, 59.7 ± 2.9 min and 16.0 ± 0.2 min, respectively.
`CC[C@@]1(O)C(=O)OCc2c1cc1n(c2=O)Cc2c-1nc1ccc(O)cc1c2[Si](C)(C)CCCN(C)C.Cl` [DB-124, 10-hydroxy-7-(3-dimethylaminopropyldimethylsilyl) camptothecin hydrochloride salt]: the “% Lactone at Equilibrium” value in data set [6] is recorded as 8.9 +/− 0.3%; in [3], 31.8 +/− 0.8%; in data set [8], 12.2 +/− 0.3%. Moreover, the t1/2 in data set [3] was determined as 63.1 ± 7.4 min; in [8] it was 40.0 ± 0.3 min.
With `CCC1(O)C(=O)OCc2c1cc1n(c2=O)Cc2c-1nc1ccc(N)cc1c2[Si](C)(C)C` (stereo in doubt) [Example 8, (20S)-10-amino-7-trimethylsilylcamptothecin], the “KDMPG overall association constant” value in data set [1] turned out to be 360 M⁻¹. Moreover, the half-inhibitory concentration (IC50) in [9] was determined as 5.7 nM; in data set [10], 0.72 nM; in data set [11], 0.52 nM. The “% Lactone at Equilibrium” value in data set [2] is reported as 12.3 +/− 0.0%; in data set [6], 10.5 +/− 0.3%. Moreover, the half-life in data set [6] (buffer) turned out to be 31.3 min; in the data set “in vitro” (blood), 37.6 min. Besides, the “KDMPC overall association constant” value in data set [5] amounted to 820 M⁻¹.
As to `CCC1(O)C(=O)OCc2c1cc1n(c2=O)Cc2c-1nc1ccccc1c2[Si](C)(C)C(C)(C)C` (stereo in doubt) [Example 2, (20S)-7-tert-butyldimethylsilylcamptothecin], the IC50 in [9] was found to be 1.2 nM; in data set [10], 2.9 nM; in data set [11], 0.12 nM. Also, the “% Lactone at Equilibrium” value is 1.0 +/− 0.1% in [2], 12.2 +/− 0.4% in [6] and 59.4 +/− 0.0% in data set [7] (human). Besides, the figures for the half-life (in data set [6] (buffer); in “in vitro” (blood); in [7] (human)) were 27.9 min, 71.9 min and 79.4 min, respectively.
As for `CC[C@@]1(O)C(=O)OCc2c1cc1n(c2=O)Cc2c-1nc1ccc(O)cc1c2[Si](C)(C)CCCCl` [DB-158, (20S)-10-hydroxy-7-(3-chloropropyldimethylsilyl) camptothecin], the “% Lactone at Equilibrium” value in data set [6] is on record as 11.3 +/− 1.8%; in data set [3] it was 17.8 +/− 2.0%; in [7] (RBC), 50.2 +/− 1.7%; in [8] it was 17.2 +/− 0.7%. The t1/2 in data set [3] was found to be 65.3 ± 9.0 min; in [7] (RBC), 67.7 ± 8.5 min; in data set [8], 48.0 ± 0.9 min.
Take `CCc1c2c(nc3ccc(OC(=O)N4CCC(N5CCCCC5)CC4)cc13)-c1cc3c(c(=O)n1C2)COC(=O)[C@]3(O)CC` [IRT, irinotecan, reference compound]: the IC50 in data set [9] is 487 nM; in data set [10], 372 nM; in data set [11], 270 nM. Moreover, in [2], the “lactone level at equilibrium in whole blood, fold greater than 9-aminocamptothecin” value is on record as “approximately 40 fold”. The “% Lactone at Equilibrium” value in [3] was determined as 21.0%. Moreover, the “% lactone at equilibrium in whole human blood” value in data set [4] is recorded as 21.0%.
Take `CC[C@@]1(O)C(=O)OCc2c1cc1n(c2=O)Cc2c-1nc1ccccc1c2CC[Si](C)(C)C` [DB-172, (20S)-7-[(2-Trimethylsilyl)ethyl]camptothecin]: in data set [1], the “KDMPG overall association constant” value was found to be 10600 M⁻¹. In [6] (PBS buffer, pH 7.4, physiological temperature), the “lactone ring stability at high drug concentrations” value was “marked stabilization of the lactone ring”. Moreover, in data set [3], the “% Lactone at Equilibrium” value was 24.1 +/− 2.6% and the t1/2 came out at 106.6 ± 10.8 min. In data set [12], the “self-association / aggregation state in solution” value is given as “self-associates to an exceptionally high degree”. Besides, in data set [8], the “% Lactone at Equilibrium” value was 4.3 +/− 1.0% and the t1/2 came out at 86.1 ± 10.3 min. In [5], the “KDMPC overall association constant” value was found to be 10500 M⁻¹. Also, the “K value for DMPC, fold greater than camptothecin” value in data set [5] (relative to camptothecin) was approximately 100 fold.
For `CC[C@@]1(O)C(=O)OCc2c1cc1n(c2=O)Cc2cc3c(CN(C)C)c(O)ccc3nc2-1` [Topotecan, topotecan, reference compound], in data set [2], the “lactone level at equilibrium in whole blood, fold greater than 9-aminocamptothecin” value was determined as 20 fold. The half-life in the data set “in vitro” (whole blood) is 30.9 min. Besides, the results for the “% Lactone at Equilibrium” value in [3], in data set [3] (listed as topotecan) and in data set [8] were 8.61 +/− 0.4%, 8.6% and 7.06 +/− 0.3%, respectively. Moreover, the “% lactone at equilibrium in whole human blood” value in data set [4] is 11.9%. In addition, the “K value for DMPC liposomes, times less than that for camptothecin” value in data set [5] (relative to camptothecin) is approximately 10 times.
